Several values for one entry are separate records, joined by “and”; a condition that tells them apart may be missing. Equal entries are not always repeated.
Key:
NCI-H295R [1] = experiment: maximal response (efficacy) relative to DMSO (0%) and doxorubicin (-100%); higher = less growth inhibition; conditions: 48 h
NCI-H295R [2] = experiment: IC50 (antiproliferative, ATP content); conditions: 48 h

Compound | IC50 (NCI-H295R [2]) | maximal response (NCI-H295R [1])
C[C@H]1CC[C@]2(NC1)O[C@H]1C[C@H]3[C@@H]4CC[C@H]5C[C@@H](O[C@@H]6O[C@H](CO)[C@H](O[C@@H]7O[C@H](CO)[C@@H](O)[C@H](O[C@@H]8OC[C@@H](O)[C@H](O)[C@H]8O)[C@H]7O[C@@H]7O[C@H](CO)[C@@H](O)[C@H](O)[C@H]7O)[C@H](O)[C@H]6O)CC[C@]5(C)[C@H]4CC[C@]3(C)[C@H]1[C@@H]2C | 1.88 µM | -127%
CC[C@@H](C(=O)[C@@H](C)[C@@H](O)[C@H](C)[C@@H]1O[C@@H]([C@@H](CC)C(=O)[O-])CC[C@@H]1C)[C@H]1O[C@]2(C=C[C@@H](O)[C@]3(CC[C@@](C)([C@H]4CC[C@](O)(CC)[C@H](C)O4)O3)O2)[C@H](C)C[C@@H]1C.[Na+] | 13.3 µM | -80.1%
CC(=O)[O][Hg][c]1ccccc1 | 2.99 µM | -126%
O=C\1OC/C(=C/1)[C@H]2CC[C@@]9(O)[C@]2(C)[C@H](O)C[C@H]3[C@H]9CC[C@@H]4C[C@H](CC[C@]34C)O[C@@H]8O[C@H](C)[C@@H](O[C@@H]7O[C@H](C)[C@@H](O[C@@H]6O[C@H](C)[C@@H](O[C@@H]5O[C@H](CO)[C@@H](O)[C@H](O)[C@H]5O)[C@@H](O)C6)[C@@H](O)C7)[C@@H](O)C8 | 0.335 µM | -110%
[Cl-].[Cl-].[Hg+2] | 11.9 µM | -127%
CCCCCCCCCCC[C@@H](C[C@@H]1OC(=O)[C@H]1CCCCCC)OC(=O)C(CC(C)C)NC=O (stereo partly specified) | 9.44 µM | -66.3%
CCN1/C(=C\C=C\c2ccc3ccccc3[n+]2CC)C=Cc2ccccc21.[I-] | 23.7 µM | -134%
Oc1c(Br)cc(Br)c2cccnc12 | 6.68 µM | -80.8%
C[C@@H](C)[C@H]1C3=C(C=C(F)C=C3)CC[C@@](OC(COC)=O)1CCN(C)CCCC4=NC2=C(N4)C=CC=C2.Cl.Cl | 10.6 µM | -126%
CC(C)C[C@H](NC(=O)[C@H](Cc1ccccc1)NC(=O)c1cnccn1)B(O)O | 0.299 µM and 0.335 µM | -74.3% and -77.1%
Nc1nc2nc[nH]c2c(=S)[nH]1 | 1.06 µM | -74.1%
Cc1cc(-c2ccc(N=Nc3c(S(=O)(=O)[O-])cc4cc(S(=O)(=O)[O-])cc(N)c4c3O)c(C)c2)ccc1N=Nc1c(S(=O)(=O)[O-])cc2cc(S(=O)(=O)[O-])cc(N)c2c1O.[Na+].[Na+].[Na+].[Na+] | 11.9 µM | -131%
O=C\1OC/C(=C/1)[C@H]2CC[C@@]8(O)[C@]2(C)[C@H](O)C[C@H]3[C@H]8CC[C@@H]4C[C@H](CC[C@]34C)O[C@@H]7O[C@H](C)[C@@H](O[C@H]6C[C@H](O)[C@H](O[C@H]5C[C@H](O)[C@H](O)[C@@H](C)O5)[C@@H](C)O6)[C@@H](O)C7 | 0.188 µM | -111%
C=C1CC[C@H](O)C/C1=C/C=C1\CCC[C@]2(C)[C@@H]([C@H](C)CCCC(C)(C)O)CC[C@@H]12 | 26.6 µM | -166%
O=C(N[C@H](C(N[C@H](C(N[C@@H](C(N[C@H](C(N[C@@H](CCCNC(N)=N)C(N6CCC[C@H]6[C@](NCC)=O)=O)=O)CC(C)C)=O)CC4=CNC5=C4C=CC=C5)=O)CC3=CC=C(O)C=C3)=O)CO)[C@@H](NC([C@@H](N[C@]([C@@H](N8)CCC8=O)=O)CC7=CNC=N7)=O)CC1=CNC2=C1C=CC=C2.O=C(C)O | 5.31 µM | -124%
CC(C)(O)c1ccccc1CC[C@@H](SCC1(CC(=O)[O-])CC1)c1cccc(/C=C/c2ccc3ccc(Cl)cc3n2)c1.[Na+] | 16.8 µM | -142%
Cc1cc(C(C#N)c2ccc(Cl)cc2)c(Cl)cc1NC(=O)c1cc(I)cc(I)c1O (stereo unspecified) | 4.22 µM | -130%
O.O.[Na+].[Na+].[O]=[Cr](=[O])([O-])[O][Cr](=[O])(=[O])[O-] | 11.9 µM | -147%
C/C=C(/C(=C/C)c1ccc(O)cc1)c1ccc(O)cc1 | 4.53 µM | -68.5%
CN(C)c1ccc2nc3ccc(N(C)C)cc3[s+]c2c1.[Cl-] | 15 µM | -109%
CC[C@H](C)[C@H]1O[C@]2(CC[C@@H]1C)C[C@@H]1C[C@@H](C/C=C(\C)[C@@H](O[C@H]3C[C@H](OC)[C@@H](O[C@H]4C[C@H](OC)[C@@H](O)[C@H](C)O4)[C@H](C)O3)[C@@H](C)/C=C/C=C3\CO[C@@H]4[C@H](O)C(C)=C[C@@H](C(=O)O1)[C@]34O)O2 | 4.22 µM | -123%
OB(O)[O][Hg][c]1ccccc1 | 3.76 µM | -130%
CC[C@@H](C(=O)O)[C@@H]1O[C@@H]([C@@H](C)[C@H](O)[C@H](C)C(=O)[C@H](CC)[C@H]2O[C@]3(C=C[C@@H](O)[C@]4(CC[C@@](C)([C@H]5CC[C@](O)(CC)[C@H](C)O5)O4)O3)[C@H](C)C[C@@H]2C)[C@@H](C)C[C@@H]1C | 5.31 µM | -140%
CNC(=O)c1cc(Oc2ccc(NC(=O)Nc3ccc(Cl)c(C(F)(F)F)c3)cc2)ccn1.Cc1ccc(S(=O)(=O)O)cc1 | 10.6 µM | -129%
C[C@@]12C(=O)OC(=O)[C@]1(C)C1CCC2O1 | 1.43 µM | -114%
COP(=S)(OC)Oc1ccc(Sc2ccc(OP(=S)(OC)OC)cc2)cc1 | 21.1 µM | -96.4%

The next lines start with results.

IC50 (NCI-H295R [2]) | Compound | maximal response (NCI-H295R [1])
16.8 µM | CC[C@@]1(O)C(=O)OCc2c1cc1n(c2=O)Cc2cc3c([N+](=O)[O-])cccc3nc2-1 | -91.1%
0.64 µM | Cc1cc(C2CCCCC2)n(O)c(=O)c1.NCCO | -61.1%
5.31 µM | Oc1c(Cl)cc(Cl)c2cccnc12 | -105%
18.8 µM | O=c1c(-c2ccccc2)c1-c1ccccc1 | -142%
7.5 µM | CCN(CC)CCNc1ccc(CO)c2sc3ccccc3c(=O)c12 | -124%
16.8 µM | O=C1OCCN1/N=C/c1ccc([N+](=O)[O-])o1 | -72.7%
23.7 µM | [Na+].[Na+].[O-]C(=O)c4c(Cl)c(Cl)c(Cl)c(Cl)c4C=2c3cc(I)c([O-])c(I)c3OC=1C=2\C=C(\I)C(=O)C=1I | -153%
0.531 µM | O=C(Nc1ccc([N+](=O)[O-])cc1Cl)c1cc(Cl)ccc1O | -94.3%
29.9 µM | CCOC(=O)N1CCC(=C2c3ccc(Cl)cc3CCc3cccnc32)CC1 | -151%
21.1 µM | Cl.O=C1CSC2(CCN(CCCN3c4ccccc4Sc4ccc(Cl)cc43)CC2)N1 | -136%
8.41 µM | COCC(=O)Nc1cc(Sc2ccccc2)ccc1N=C(NC(=O)OC)NC(=O)OC | -64.1%
21.1 µM | COc1cc2c(cc1OC)-c1c/c(=N\c3c(C)cc(C)cc3C)n(C)c(=O)n1CC2.Cl | -149%

— the supplement of paper PMC3493320
